Legend:
[1] = system: PBMCs; assay: RNA sequencing of PBMCs, differential expression analysis; assay type: cell-based, human; conditions: 2 μM, 18 h; for Number of genes with significantly modulated expression: FDR <0.05, fold change >1.5 or <0.667 vs 0.1% DMSO; for Number of differentially expressed genes: down-regulated / Number of differentially expressed genes: up-regulated: vs 0.1% DMSO
Procedure: Based on the potent in vitro NOD2 activation by 68 and the PBMC cytotoxicity activation by 75, we explored the effects of 68 and 75 in terms of induction at the transcriptional level. Next-generation sequencing of RNA isolated from PBMCs was carried out following their stimulation for 18 h with 68 or 75 (2 μM). After applying a low expression filter, the remaining 19046 genes from the desmuramylpeptide-treated samples were compared to the vehicle-treated controls (0.1% DMSO).
Peripheral blood mononuclear cells from three independent donors were seeded (2 × 10^6 cells/mL) in 24-well plates in 1 mL of growth medium and treated with the compounds (2 μM) or vehicle (0.1% DMSO) for 18 h at 37 °C in 5% CO2. The cells were washed with phosphate-buffered saline, resuspended in RNAlater RNA stabilization solution (Sigma-Aldrich, St. Louis, MO, U.S.A.), and stored at −80 °C. RNA extraction, library construction, and sequencing were conducted by Genewiz (Leipzig, Germany).
Briefly, total RNA was extracted using the RNeasy mini kit (Qiagen, Hilden, Germany) according to the manufacturer protocol. RNA samples were quantified using Qubit 4.0 Fluorometer (Life Technologies, Carlsbad, CA, U.S.A.), and RNA integrity was checked with RNA Kit on a 5600 Fragment Analyzer (Agilent Technologies, Palo Alto, CA, U.S.A.). All RNA samples were of high quality with an RNA quality number of ≥9.4. RNA sequencing libraries were prepared using NEBNext Ultra II RNA library prep kit for Illumina according to the manufacturer instructions (New England Biolabs, Ipswich, MA, U.S.A.). Libraries were loaded on the Illumina NovaSeq 6000 instrument, and clustering was performed directly on the NovaSeq before sequencing according to the manufacturer instructions. The samples were sequenced using a 2 × 150 paired end configuration. Image analysis and base calling were conducted by the NovaSeq Control Software. Raw sequence data (.bcl files) generated from the Illumina NovaSeq were converted into fastq files and demultiplexed using Illumina’s bcl2fastq 2.19 software. One mismatch was allowed for index sequence identification. After investigating the quality of the raw data, sequence reads were trimmed to remove possible adapter sequences and nucleotides with poor quality using Trimmomatic v.0.36. The trimmed reads were mapped to the Homo sapiens reference genome as available on ENSEMBL, using STAR aligner v.2.5.2b, thus generating BAM files. Unique gene hit counts were calculated using feature counts from the Subread package v.1.5.2. Only unique reads that fell within exon regions were counted. After extraction of gene hit counts, the gene hit counts table was used for downstream differential expression analysis.
Differential expression analysis was performed with iDEP.91.[128] First, a low expression filter was applied (0.5 counts per million in at least 1 library). The remaining gene counts were normalized by counts per million in the EdgeR package, with a pseudocount of 4. Differential gene expression analysis was performed with the DESeq2 method, using a false discovery rate <0.05 and a gene expression fold change >1.5 or <0.667 as the cutoff values. The list of differentially expressed genes was then used as input for gene annotation and pathway enrichment analysis with Metascape.[94]

[2] = system: CD8+ T cells (OT I) cocultured with BMDCs; assay: BMDC antigen cross-presentation assay with ovalbumin-specific CD8+ T cells; assay type: cell-based, mouse; conditions: ovalbumin 50 μg/mL, 72 h coculture
Procedure: To evaluate the adjuvant potential of the two most-promising desmuramylpeptides, 68 and 75, in terms of their effects on DC-mediated activation of CD4^+ and CD8^+ T cells, we used an in vitro antigen-presentation assay with C57BL/6 mouse bone-marrow-derived DCs (BMDCs). Following stimulation with 68 and 75 (1 or 10 μM) in the presence of ovalbumin soluble protein (50 μg/mL), BMDCs were cocultured with carboxyfluorescein succinimidyl ester (CFSE)-labeled naive ovalbumin-specific CD4^+ or CD8^+ T cells, which were isolated from splenocytes of OT II and OT I transgenic mice, respectively. After 3 days of coculture, CD25 (α subunit of IL-2 receptor)[108] expression was determined, along with the CFSE dilution, as markers of T-cell activation and proliferation, respectively. Furthermore, we also examined how this desmuramylpeptide-induced priming of T cells affected the secreted cytokine profiles in BMDC/T-cell cocultures.
CD4^+ and CD8^+ T cells were purified from splenocytes of OT II and OT I transgenic mice using CD4^+ and CD8^+ T cell isolation kits (Miltenyi Biotec, Germany), according to manufacturer instructions. […] Live Thy1.2^+/CD4^+ and Thy1.2^+/CD8^+ were evaluated for CFSE dilution and CD25 expression. […] Statistical significance was determined by one-way ANOVA followed by Dunnett’s multiple comparisons test.

Row | SMILES | Modulation of interferon-stimulated genes (ISGs) [1] | Number of genes with significantly modulated expression [1] [genes] | Number of differentially expressed genes: down-regulated [1] [genes] | Number of differentially expressed genes: up-regulated [1] [genes] | BMDC processing and cross-presentation of ovalbumin to CD8+ T cells [2]
1 | COc1cc(/C=C/C(=O)NCC(=O)N[C@H](C(=O)N[C@H](CCC(=O)OC2CCCC2)C(=O)OC2CCCC2)C(C)C)ccc1O [Compound 68, Dicyclopentyl ((E)-3-(4-Hydroxy-3-methoxyphenyl)acryloyl)glycyl-L-valyl-D-glutamate] | up-regulation of several interferon-stimulated genes | 445 | 215 | 230 | significantly increased
2 | CCCCCCCCCCCCCCCCCC(=O)Oc1ccc(/C=C/C(=O)NCC(=O)N[C@H](C(=O)N[C@H](CCC(=O)OCC)C(=O)OCC)C(C)C)cc1OC [Compound 75, Diethyl ((E)-3-(3-Methoxy-4-(stearoyloxy)phenyl)acryloyl)glycyl-L-valyl-D-glutamate] | – | 270 | 143 | 127 | –

— article PMC8279416, “Structural Fine-Tuning of Desmuramylpeptide NOD2 Agonists Defines Their In Vivo Adjuvant Activity” (Journal of Medicinal Chemistry, 2021)
